Assay results reported in ChEMBL document CHEMBL1201862, “PubChem BioAssay data set” (2004).
Activity calls are given as the source filed them.

Tests used:
[1] = target: 5'-AMP-activated protein kinase catalytic subunit alpha-1 (Homo sapiens, UniProt Q13131); format: functional
[2] = target: Tyrosine-protein kinase JAK2 (Homo sapiens, UniProt O60674); format: functional;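 note: JAK2 tested as one member of a kinase panel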
[3] = target: Death-associated protein kinase 3 (Homo sapiens, UniProt O43293); format: functional;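 note: measured as one member of a kinome-wide profiling panel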
Sequence of Death-associated protein kinase 3 (O43293 whole entry): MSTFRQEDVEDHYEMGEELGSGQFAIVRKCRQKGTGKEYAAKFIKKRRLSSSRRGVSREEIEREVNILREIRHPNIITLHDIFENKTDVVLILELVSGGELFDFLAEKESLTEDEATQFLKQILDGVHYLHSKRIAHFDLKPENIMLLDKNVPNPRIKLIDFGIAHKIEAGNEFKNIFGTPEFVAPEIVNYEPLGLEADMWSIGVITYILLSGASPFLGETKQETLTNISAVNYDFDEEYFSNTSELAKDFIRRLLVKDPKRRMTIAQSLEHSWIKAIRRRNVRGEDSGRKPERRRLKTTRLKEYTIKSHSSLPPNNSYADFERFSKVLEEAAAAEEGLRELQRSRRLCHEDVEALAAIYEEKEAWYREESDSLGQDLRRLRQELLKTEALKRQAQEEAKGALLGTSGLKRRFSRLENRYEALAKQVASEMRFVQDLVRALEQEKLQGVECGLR

[4] = target: Ribosomal protein S6 kinase beta-1 (Homo sapiens, UniProt P23443); format: functional;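 note: measured as one member of a kinome-wide profiling panel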
Sequence of Ribosomal protein S6 kinase beta-1 (P23443 whole entry): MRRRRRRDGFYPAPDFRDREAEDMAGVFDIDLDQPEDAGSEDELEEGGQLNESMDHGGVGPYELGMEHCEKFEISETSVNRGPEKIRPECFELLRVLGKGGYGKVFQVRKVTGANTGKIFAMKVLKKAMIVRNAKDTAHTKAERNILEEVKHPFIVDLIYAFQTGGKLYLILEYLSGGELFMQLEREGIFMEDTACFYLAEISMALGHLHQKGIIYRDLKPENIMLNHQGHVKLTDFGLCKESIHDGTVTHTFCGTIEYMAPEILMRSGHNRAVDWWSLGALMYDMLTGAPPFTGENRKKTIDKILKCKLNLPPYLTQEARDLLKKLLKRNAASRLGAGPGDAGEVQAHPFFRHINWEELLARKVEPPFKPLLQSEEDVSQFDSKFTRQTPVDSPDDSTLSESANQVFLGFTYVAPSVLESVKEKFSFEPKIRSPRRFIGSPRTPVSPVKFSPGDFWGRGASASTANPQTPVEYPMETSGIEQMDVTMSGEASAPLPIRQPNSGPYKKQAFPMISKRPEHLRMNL

[5] = target: Serine/threonine-protein kinase pim-1 (Homo sapiens, UniProt P11309); format: functional
Sequence of Serine/threonine-protein kinase pim-1 (P11309 whole entry, the tested form may be a part): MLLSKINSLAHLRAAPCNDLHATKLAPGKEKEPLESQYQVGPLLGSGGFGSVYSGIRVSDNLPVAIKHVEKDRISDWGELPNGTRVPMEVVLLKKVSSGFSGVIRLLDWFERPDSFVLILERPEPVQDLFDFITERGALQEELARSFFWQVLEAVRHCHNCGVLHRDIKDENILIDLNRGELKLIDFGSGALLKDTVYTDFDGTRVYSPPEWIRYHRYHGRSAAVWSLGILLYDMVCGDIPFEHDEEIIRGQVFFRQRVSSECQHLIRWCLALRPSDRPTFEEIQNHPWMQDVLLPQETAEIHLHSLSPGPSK

LIM domain kinase 1 = LIM domain kinase 1 (Homo sapiens, UniProt P53667); test: Navigating the Kinome. Panel member name: LIMK1; format: functional
Sequence of LIM domain kinase 1 (P53667 whole entry, the tested form may be a part): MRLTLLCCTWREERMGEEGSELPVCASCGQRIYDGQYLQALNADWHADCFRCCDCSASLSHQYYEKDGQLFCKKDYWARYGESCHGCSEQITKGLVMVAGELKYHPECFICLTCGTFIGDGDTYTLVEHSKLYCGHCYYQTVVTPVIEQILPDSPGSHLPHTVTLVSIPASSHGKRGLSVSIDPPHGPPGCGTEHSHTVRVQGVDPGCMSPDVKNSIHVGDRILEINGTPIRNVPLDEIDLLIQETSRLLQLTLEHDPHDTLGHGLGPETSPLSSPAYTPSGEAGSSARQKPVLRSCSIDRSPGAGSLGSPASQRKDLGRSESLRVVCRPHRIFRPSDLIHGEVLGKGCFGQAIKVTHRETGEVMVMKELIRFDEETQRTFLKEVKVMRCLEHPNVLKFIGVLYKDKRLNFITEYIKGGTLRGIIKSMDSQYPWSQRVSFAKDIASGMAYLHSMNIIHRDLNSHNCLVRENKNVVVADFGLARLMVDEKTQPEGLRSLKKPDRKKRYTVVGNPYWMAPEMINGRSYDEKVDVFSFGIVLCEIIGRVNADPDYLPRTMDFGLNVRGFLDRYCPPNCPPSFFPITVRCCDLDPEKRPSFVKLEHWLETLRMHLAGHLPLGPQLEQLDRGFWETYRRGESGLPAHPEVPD

[6] = target: Receptor tyrosine-protein kinase erbB-4 (Homo sapiens, UniProt Q15303); format: functional;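 note: ERBB4 member of a kinome-wide kinase profiling panel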
Sequence of Receptor tyrosine-protein kinase erbB-4 (Q15303 whole entry): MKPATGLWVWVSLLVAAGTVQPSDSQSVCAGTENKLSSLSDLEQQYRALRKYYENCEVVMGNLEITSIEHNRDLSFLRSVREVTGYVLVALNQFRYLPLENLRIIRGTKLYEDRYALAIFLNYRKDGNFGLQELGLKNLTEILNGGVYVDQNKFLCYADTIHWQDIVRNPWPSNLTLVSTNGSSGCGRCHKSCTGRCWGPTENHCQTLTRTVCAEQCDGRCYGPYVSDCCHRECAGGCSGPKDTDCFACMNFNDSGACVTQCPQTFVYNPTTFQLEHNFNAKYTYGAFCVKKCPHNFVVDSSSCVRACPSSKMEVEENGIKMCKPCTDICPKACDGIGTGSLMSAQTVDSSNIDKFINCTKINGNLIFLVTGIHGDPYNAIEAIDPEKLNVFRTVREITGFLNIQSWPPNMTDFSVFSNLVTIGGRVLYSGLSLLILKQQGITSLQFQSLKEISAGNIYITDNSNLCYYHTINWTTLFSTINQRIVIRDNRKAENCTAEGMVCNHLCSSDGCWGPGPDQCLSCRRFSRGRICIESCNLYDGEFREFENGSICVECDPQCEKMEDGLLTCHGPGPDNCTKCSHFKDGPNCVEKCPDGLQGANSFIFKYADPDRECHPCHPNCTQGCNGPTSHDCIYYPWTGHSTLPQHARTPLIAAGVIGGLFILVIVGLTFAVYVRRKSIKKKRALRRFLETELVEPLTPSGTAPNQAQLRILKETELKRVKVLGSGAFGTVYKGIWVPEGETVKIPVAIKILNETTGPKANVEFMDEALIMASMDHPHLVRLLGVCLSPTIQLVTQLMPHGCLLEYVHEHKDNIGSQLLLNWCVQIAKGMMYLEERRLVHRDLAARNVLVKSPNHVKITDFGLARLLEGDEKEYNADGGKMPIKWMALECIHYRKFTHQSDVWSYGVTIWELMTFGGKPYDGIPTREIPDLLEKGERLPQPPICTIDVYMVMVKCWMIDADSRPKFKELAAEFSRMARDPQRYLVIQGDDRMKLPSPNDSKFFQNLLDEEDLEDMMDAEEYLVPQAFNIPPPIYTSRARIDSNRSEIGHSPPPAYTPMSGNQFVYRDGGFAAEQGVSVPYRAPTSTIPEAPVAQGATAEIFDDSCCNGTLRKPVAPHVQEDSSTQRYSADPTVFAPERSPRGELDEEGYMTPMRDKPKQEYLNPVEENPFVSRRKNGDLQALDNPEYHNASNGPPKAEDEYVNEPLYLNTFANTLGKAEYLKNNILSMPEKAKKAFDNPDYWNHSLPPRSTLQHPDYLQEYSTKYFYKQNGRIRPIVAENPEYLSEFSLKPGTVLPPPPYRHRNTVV

[7] = target: T1, Apoptotic protease-activating factor 1 (Homo sapiens, UniProt O14727); format: functional
T1 sequence (O14727 whole entry): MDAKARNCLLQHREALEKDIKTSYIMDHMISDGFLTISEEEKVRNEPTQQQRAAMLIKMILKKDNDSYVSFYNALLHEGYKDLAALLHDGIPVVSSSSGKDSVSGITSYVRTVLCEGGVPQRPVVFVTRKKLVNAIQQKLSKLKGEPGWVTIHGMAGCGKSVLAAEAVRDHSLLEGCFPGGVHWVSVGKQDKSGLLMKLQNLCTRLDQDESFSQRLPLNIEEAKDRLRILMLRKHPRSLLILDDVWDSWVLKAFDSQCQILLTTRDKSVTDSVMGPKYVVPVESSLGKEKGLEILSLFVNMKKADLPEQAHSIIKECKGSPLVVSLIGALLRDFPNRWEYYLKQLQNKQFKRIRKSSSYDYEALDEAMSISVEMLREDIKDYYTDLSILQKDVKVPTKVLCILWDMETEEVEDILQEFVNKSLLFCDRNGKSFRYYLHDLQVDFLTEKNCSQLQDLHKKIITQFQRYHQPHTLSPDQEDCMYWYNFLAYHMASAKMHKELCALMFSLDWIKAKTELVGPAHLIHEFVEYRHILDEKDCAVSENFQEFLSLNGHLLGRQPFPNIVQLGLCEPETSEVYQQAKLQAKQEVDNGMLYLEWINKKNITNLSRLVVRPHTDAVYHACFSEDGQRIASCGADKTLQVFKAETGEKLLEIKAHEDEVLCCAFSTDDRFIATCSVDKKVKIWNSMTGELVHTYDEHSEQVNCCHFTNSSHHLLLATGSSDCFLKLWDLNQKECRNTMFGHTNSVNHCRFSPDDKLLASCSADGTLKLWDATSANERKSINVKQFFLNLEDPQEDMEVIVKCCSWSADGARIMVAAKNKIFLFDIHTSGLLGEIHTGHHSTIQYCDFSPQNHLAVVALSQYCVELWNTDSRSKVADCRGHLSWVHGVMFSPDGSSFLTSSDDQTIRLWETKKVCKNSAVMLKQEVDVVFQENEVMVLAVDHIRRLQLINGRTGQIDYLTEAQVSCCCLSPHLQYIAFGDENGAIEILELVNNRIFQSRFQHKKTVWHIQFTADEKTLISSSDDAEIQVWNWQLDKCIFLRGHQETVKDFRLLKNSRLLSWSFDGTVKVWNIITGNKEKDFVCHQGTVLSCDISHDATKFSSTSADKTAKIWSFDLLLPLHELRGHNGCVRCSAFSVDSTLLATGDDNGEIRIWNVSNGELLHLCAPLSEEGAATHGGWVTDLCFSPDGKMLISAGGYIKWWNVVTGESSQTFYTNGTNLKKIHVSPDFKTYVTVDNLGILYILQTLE

Caspase-3 = target: T2, Caspase-3 (Homo sapiens, UniProt P42574); format: functional;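 note: Dose-response selectivity test against caspase-3 for candidate inhibitors of sentrin-specific proteases (SENPs)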
T2 sequence (P42574 whole entry): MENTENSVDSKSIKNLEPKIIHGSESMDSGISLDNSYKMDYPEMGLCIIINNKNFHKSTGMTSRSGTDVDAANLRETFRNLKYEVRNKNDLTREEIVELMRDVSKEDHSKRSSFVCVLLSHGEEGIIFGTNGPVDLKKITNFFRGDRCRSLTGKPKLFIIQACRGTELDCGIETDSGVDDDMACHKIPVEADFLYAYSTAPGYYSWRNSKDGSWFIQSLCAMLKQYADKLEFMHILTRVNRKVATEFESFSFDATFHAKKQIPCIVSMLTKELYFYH

Insulin-degrading enzyme = target: T3, Insulin-degrading enzyme (Homo sapiens, UniProt P14735); test: recombinant IDE activation, cell-free – biochemical, fluorescence polarization, counter-screen for IDE activator project, dose response (AID 588681)
T3 sequence (P14735 whole entry): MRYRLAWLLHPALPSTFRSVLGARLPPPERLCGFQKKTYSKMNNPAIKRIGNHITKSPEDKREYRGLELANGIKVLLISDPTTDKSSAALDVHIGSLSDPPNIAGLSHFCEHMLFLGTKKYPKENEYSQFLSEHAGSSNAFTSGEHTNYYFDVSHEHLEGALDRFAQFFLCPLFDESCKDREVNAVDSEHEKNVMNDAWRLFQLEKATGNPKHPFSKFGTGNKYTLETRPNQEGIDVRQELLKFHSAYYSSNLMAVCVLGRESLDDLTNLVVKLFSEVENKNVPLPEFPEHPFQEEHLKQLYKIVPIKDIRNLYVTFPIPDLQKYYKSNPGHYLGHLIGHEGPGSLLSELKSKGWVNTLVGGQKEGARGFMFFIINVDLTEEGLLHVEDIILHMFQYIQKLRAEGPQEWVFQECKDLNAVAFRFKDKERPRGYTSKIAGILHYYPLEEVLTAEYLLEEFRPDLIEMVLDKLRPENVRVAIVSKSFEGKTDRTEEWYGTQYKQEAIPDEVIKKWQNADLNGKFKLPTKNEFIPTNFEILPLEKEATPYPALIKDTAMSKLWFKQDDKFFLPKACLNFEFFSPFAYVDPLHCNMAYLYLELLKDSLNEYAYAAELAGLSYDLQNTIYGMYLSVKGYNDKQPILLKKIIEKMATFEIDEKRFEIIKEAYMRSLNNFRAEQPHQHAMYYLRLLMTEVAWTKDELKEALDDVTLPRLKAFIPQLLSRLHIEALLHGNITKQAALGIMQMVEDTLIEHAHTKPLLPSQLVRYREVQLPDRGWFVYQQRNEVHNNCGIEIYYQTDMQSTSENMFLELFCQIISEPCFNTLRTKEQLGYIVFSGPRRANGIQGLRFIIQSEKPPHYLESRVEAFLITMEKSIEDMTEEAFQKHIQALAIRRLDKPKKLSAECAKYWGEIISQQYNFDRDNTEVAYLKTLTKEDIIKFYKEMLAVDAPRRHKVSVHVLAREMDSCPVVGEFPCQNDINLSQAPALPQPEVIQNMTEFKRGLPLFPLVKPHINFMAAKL

BJ = test: BJ-TERT-LT-ST fibroblast viability loss – cell-based, RAS-independent, luminescence, dose response (AID 1935); format: functional; details: Homo sapiens;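 note: BJ fibroblasts immortalized with TERT plus LT and ST oncogenes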

Sequence of 5'-AMP-activated protein kinase catalytic subunit alpha-1 (Q13131 whole entry): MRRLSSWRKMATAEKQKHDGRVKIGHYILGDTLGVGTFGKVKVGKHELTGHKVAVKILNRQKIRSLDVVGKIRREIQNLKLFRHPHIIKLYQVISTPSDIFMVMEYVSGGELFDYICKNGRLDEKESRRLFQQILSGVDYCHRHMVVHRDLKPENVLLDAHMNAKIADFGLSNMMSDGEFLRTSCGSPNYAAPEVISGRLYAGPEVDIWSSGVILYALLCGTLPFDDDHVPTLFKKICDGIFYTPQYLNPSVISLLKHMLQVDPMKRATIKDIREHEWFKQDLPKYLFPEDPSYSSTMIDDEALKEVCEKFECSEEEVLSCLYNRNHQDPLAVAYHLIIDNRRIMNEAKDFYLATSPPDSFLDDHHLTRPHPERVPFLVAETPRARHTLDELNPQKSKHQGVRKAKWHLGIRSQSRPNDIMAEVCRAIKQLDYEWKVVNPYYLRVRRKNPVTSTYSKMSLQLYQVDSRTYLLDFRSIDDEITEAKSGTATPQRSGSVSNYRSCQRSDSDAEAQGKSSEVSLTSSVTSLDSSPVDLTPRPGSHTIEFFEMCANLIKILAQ
Sequence of Tyrosine-protein kinase JAK2 (O60674 whole entry): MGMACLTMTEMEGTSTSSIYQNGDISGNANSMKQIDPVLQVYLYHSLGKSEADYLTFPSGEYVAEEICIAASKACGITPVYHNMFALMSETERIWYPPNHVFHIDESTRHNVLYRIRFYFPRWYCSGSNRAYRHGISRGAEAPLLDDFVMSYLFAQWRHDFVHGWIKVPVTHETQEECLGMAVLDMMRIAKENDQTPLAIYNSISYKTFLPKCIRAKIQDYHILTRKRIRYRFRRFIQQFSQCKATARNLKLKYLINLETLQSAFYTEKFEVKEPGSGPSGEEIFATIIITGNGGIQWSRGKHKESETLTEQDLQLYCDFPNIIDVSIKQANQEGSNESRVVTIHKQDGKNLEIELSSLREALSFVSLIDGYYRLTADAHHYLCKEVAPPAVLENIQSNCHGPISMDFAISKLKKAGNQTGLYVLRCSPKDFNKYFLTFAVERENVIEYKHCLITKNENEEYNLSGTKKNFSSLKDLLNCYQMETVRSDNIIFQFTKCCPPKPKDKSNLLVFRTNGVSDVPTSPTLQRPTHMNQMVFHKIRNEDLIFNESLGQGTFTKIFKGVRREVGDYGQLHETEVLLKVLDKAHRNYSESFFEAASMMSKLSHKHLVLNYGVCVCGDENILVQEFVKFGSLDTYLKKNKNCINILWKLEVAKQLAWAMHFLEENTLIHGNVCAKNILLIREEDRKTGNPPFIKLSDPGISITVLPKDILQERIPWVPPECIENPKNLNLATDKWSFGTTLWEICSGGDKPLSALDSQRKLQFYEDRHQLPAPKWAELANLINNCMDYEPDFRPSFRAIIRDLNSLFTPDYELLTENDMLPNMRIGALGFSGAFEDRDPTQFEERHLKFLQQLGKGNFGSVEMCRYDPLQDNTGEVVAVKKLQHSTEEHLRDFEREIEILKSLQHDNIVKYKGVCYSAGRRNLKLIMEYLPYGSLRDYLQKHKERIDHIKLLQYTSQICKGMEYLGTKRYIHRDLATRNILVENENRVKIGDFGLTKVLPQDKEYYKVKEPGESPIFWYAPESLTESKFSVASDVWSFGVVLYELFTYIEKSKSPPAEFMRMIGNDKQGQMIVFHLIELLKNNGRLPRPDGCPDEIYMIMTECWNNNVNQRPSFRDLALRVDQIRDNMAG

Ki [1]	Ki [2]	Ki [4]	Ki [5]	Ki (LIM domain kinase 1)	Ki [6]	Structure (SMILES)	Ki [3]	IC50 [7]	IC50 (Caspase-3)	EC50 (Insulin-degrading enzyme)	EC50 (BJ)
2510 nM (active)	1000 nM (active)	316 nM (active)	158 nM (active)	1260 nM (active)	> 3980 nM (inactive)	CC(=NNC(=N)N)c1cc(NC(=O)NCCCCCCNC(=O)Nc2cc(C(C)=NNC(=N)N)cc(C(C)=NNC(=N)N)c2)cc(C(C)=NNC(=N)N)c1	158 nM (active)	–	–	–	–
–	–	–	–	–	–	CCC(C)NC(=O)c1c(N)n(CCCOC)c2nc3ccccc3nc12 (configuration not stated)	–	25900 nM (active)	6150 nM (active)	–	–
–	–	–	–	–	–	Cc1cc(N)c2cc(NC(=O)/C=C/c3ccccc3Cl)ccc2n1	–	9950 nM (active)	–	> 54700 nM (inactive)	2790 nM (inconclusive)
